Data reported in US7524844B2, “Dipeptidyl peptidase IV inhibitors, process for their preparation and compositions containing them” (Glenmark Pharmaceuticals S.A., priority 2004, dated 2009).
pIC50: −log10 of the molar value. Where a name gives a salt, the structure may show the parent alone.

These compounds were tested against T1, human recombinant Dipeptidyl peptidase IV enzyme (DPP-IV) (Homo sapiens, UniProt P27487) (assay: in-vitro DPP-IV assay (cleavage of AMC from Gly-Pro-AMC)). Conditions: human recombinant DPP-IV, Gly-Pro-AMC substrate, 30° C., 30 minutes; read-out: DPP-IV inhibition using human recombinant DPP-IV enzyme, IC50.
T1 construct: purchased R&D Systems Inc. of Minneapolis, Minn
Format: biochemical
Protocol: DPP-IV activity was determined by the cleavage rate of 7-amino-4-methyl coumarin (AMC) from the synthetic substrate Glycyl-Prolyl-AMC. In brief, the assay was conducted by adding 10 ng of human recombinant Dipeptidyl peptidase IV enzyme (DPP-IV, available commercially from R&D Systems Inc. of Minneapolis, Minn.) in 50 μl of the assay buffer (25 mM Tris, pH 7.4, 140 mM NaCl, 10 mM KCl, 1% BSA) to 96 well black flat bottom microtiter plates. The reaction was initiated by adding 50 μl of 100 μM substrate Gly-Pro-AMC. The incubation was carried out in the kinetic mode at 30° C. for 30 minutes. Fluorescence was measured using Fluorostar with an excitation filter of 380 nm and emission filter of 460 nm. Test compounds and solvent controls were added as 1 μl additions. A standard curve of free amino methyl coumarin (AMC) was generated using 0-100 μM AMC in the assay buffer. The curve generated, which was linear was used for the interpolation of catalytic activity.
Test compounds dissolved in DMSO at 5-6 concentrations were tested in duplicate along with the solvent control and blank samples. Percent inhibition was calculated at each concentration with respect to the solvent control sample (no test compound added). […]

T1 sequence (P27487 whole entry): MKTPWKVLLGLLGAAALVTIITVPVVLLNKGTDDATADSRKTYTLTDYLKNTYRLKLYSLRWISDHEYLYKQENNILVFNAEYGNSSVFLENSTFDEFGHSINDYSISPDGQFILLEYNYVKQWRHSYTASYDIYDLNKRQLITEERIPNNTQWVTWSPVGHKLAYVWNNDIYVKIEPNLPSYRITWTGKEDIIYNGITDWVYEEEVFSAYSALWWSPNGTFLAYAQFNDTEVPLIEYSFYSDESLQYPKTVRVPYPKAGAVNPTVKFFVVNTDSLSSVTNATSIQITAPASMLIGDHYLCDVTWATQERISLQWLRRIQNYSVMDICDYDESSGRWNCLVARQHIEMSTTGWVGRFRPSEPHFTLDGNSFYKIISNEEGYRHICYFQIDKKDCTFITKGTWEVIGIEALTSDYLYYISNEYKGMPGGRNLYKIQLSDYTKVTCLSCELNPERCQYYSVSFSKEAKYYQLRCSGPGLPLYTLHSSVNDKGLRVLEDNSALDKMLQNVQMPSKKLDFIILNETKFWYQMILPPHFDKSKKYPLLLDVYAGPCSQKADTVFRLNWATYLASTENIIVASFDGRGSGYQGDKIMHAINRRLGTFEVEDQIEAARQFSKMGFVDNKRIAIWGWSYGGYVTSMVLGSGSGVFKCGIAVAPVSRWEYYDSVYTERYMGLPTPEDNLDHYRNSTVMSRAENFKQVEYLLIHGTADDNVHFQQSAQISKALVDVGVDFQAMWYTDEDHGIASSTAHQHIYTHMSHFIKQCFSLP

Structure (SMILES)	pIC50
N#C[C@@H]1CCCN1C(=O)CN[C@H]1CC[C@@H](Cn2nccn2)C1 [Example-56, (2S)-1-{2-[(1S,3R)-3-(2H-1,2,3-Triazol-2-ylmethyl)cyclopentylamino]acetyl}-pyrrolidine-2-carbonitrile]	7.10
N#C[C@@H]1C[C@H](F)CN1C(=O)CN[C@H]1CC[C@@H](Cn2nccn2)C1 [Example-58, (2S,4S)-1-{2-[(1S,3R)-3-(2H-1,2,3-Triazol-2-ylmethyl)cyclopentylamino]acetyl}-4-fluoropyrrolidine-2-carbonitrile]	7.98
N#C[C@@H]1CCCN1C(=O)CN[C@H]1CC[C@@H](Cn2cnnn2)C1 [Example-61, (2S)-1-{2-[(1S,3R)-3-(1H-1,2,3,4-Tetrazol-1-ylmethyl)cyclopentylamino]acetyl}-pyrrolidine-2-carbonitrile]	7.94
N#C[C@@H]1CCCN1C(=O)CN[C@@H]1CC[C@H](CN2CCc3ccccc32)C1 [Example-63]	7.66
N#C[C@@H]1CCCN1C(=O)CN[C@@H]1CC[C@H](CN2Cc3ccccc3C2)C1 [Example-65, (2S)-1-{2-[(3S,1R)-3-(2,3-Dihydro-1H-2-isoindolylmethyl)cyclopentylamino]acetyl}-pyrrolidine-2-carbonitrile]	7.88
N#C[C@@H]1CCCN1C(=O)CN[C@H]1CC[C@@H](Cn2ncc3ccccc32)C1 [Example-67, (2S)-1-{2-[(1S,3R)-3-(1H-Indazol-1-ylmethyl)cyclopentylamino]acetyl}pyrrolidin-2-carbonitrile]	7.65
N#C[C@@H]1CCCN1C(=O)CN[C@H]1CC[C@@H](Cn2cc3ccccc3n2)C1 [Example-68, (2S)-1-{2-[(1S,3R)-3-(2H-Indazol-2-ylmethyl)cyclopentylamino]acetyl}pyrrolidin-2-carbonitrile]	7.72

The next compounds have a higher pIC50 than those just listed; values first:

pIC50	Structure (SMILES)
8.03	N#C[C@@H]1CCCN1C(=O)CN[C@@H]1CC[C@H](Cn2nc3ccccc3n2)C1 [Example-71, (2S)-1-{2-[(3S,1R)-3-(2H-benzo[d][1,2,3]triazol-2-ylmethyl)cyclopentylamino]-acetyl}pyrrolidine-2-carbonitrile]
8.04	N#C[C@@H]1CCCN1C(=O)CN[C@@H]1CC[C@H](Cn2cnnn2)C1 [Example-59, (2S)-1-{2-[(3S,1R)-3-[1H-1 ,2,3,4-Tetrazol-1-ylmethyl]cyclopentylamino]acetyl}-pyrrolidine-2-carbonitrile]
8.06	N#C[C@@H]1CCCN1C(=O)CN[C@@H]1CC[C@H](Cn2nnc(-c3ccc(F)cc3)n2)C1 [Example-62, (2S)-1-(2-{(3S,1R)-3-[5-(4-Fluorophenyl)-2H-1,2,3,4-tetrazol-2-ylmethyl]cyclo-pentylamino}acetyl)pyrrolidine-2-carbonitrile]
8.23	N#C[C@@H]1C[C@H](F)CN1C(=O)CN[C@H]1CC[C@@H](Cn2ccnn2)C1 [Example-57]
8.24	N#Cc1cn(C[C@H]2CC[C@@H](NCC(=O)N3C[C@@H](F)C[C@H]3C#N)C2)c2ccccc12 [Example-64, 1-((1S,3R)-3-{2-[(2S,4S)-2-Cyano-4-fluoropyrrolidin-1-yl]-2-oxoethylamino}cyclo-pentylmethyl)-1H-3-indolecarbonitrile]
8.35	N#C[C@@H]1CCCN1C(=O)CN[C@@H]1CC[C@H](Cn2cnc3ccccc32)C1 [Example-69, (2S)-1-{2-[(3S,1R)-3-(1H-Benzo[d]imidazol-1-ylmethyl)cyclopenylamino]acetyl}-pyrrolidine-2-carbonitrile]
8.39	N#C[C@@H]1CCCN1C(=O)CN[C@@H]1CC[C@H](Cn2cnnn2)C1 [Example-60, (2S)-1-{2-[(3S,1R)-3-(1H-1,2,3,4-Tetrazol-1-ylmethyl)cyclopentylamino]acetyl}-pyrrolidine-2-carbonitrile maleate]
8.47	N#C[C@@H]1CCCN1C(=O)CN[C@@H]1CC[C@H](Cn2nnc3ccccc32)C1 [Example-70, (2S)-1-{2-[(3S,1R)-3-(2H-Benzo[d][1,2,3]triazol-1-ylmethyl)cyclopentylamino]-acetyl}pyrrolidine-2-carbonitrile]
